Assay results published in patent US20250325676A1, “CAMPTOTHECIN PRODRUG AND PHARMACEUTICAL COMPOSITION THEREOF” (TIANJIN HEMAY ONCOLOGY PHARMACEUTICAL CO., LTD, priority 2022, published 2025).
Like-named read-outs stand apart in the source and are kept apart here.

Columns and labels:
[1] = tested on: human pancreatic cancer BxPC-3; assay: Growth of human pancreatic cancer BxPC-3 in allogeneic transplantation model; assay type: in vivo, nude mice; settings: 100 mg/kg i.p. qw × 2; BxPC-3 model; d 17 data
[2] = tested on: human colon cancer HCT116; assay: Growth of human colon cancer HCT116 in allogeneic transplantation model; assay type: in vivo, nude mice
MDA-MB-468 = assay: In vitro inhibition of human tumor cells, MDA-MB-468, SRB method
[3] = tested on: human small cell lung cancer NCI-H446; settings: 20 mg/kg i.v. qw × 2; NCI-H446 model
NCI-N87 = assay: In vitro inhibition of human tumor cells, NCI-N87, MTT method; assay type: cell-based
LoVo = assay: In vitro inhibition of human tumor cells, LoVo, SRB method; assay type: cell-based
Source text: (§1) The cells were allowed to adhere overnight.
(§2) Trichloroacetic acid was removed. […] Excess SRB was removed.
(§3) The DMSO concentration was 0.1%.

SW620 = assay: In vitro inhibition of human tumor cells, SW620, SRB method; assay type: cell-based
Source text: as §1, §2, §3

NCI-H460 = assay: In vitro inhibition of human tumor cells, NCI-H460, MTT method; assay type: cell-based
Description: as §1
(§4) Adherent cells: Culture medium was aspirated and 100 μl/wells of basal culture (generally refers to medium without fetal bovine serum (FBS) and other additives) containing 0.5 mg/ml MTT were added. The cells were cultured for 3 hours. MTT-containing basal medium was aspirated and 100 μl/wells of DMSO were added to dissolve formazan.
(§5) Unstably adherent cells: Unstably adherent cells were directly added to the MTT solution to achieve the concentration of 0.5 mg/ml and cultured for 3 hours. The ternary solution in an equal volume to the system was added to the system to dissolve the formazan.
as §3

BxPC-3 = assay: In vitro inhibition of human tumor cells, BxPC-3, MTT method; assay type: cell-based
Description: as §1, §4, §5, §3

HCT116 = assay: In vitro inhibition of human tumor cells, HCT116, MTT method; assay type: cell-based
Description: as §1, §4, §5, §3

[4] = tested on: human gastric cancer NCI-N87; assay: Growth of human gastric cancer NCI-N87 in allogeneic transplantation model; assay type: in vivo, nude mice; settings: 20 mg/kg i.v. qw × 2
Description: The tumor volume was measured 2 to 3 times per week. […] The subcutaneous tumors were peeled and weighed.
The calculation formula of the tumor volume: Volume=0.5×long diameter×short diameter×short diameter.

[5] = tested on: human colon cancer HCT116; settings: 30 mg/kg i.v. qw × 2; HCT116 large tumor after irinotecan
Source text: When the tumor volume was more than 600 mm^3 and stable growth was maintained, the experimental animals were randomly divided by the remainder method and administered according to the size of the tumor volume. […] The subcutaneous tumors were stripped and weighed.
T was the subject and C is the model control.
Tumor volume growth was observed on a regular basis after completion of dosing.

human colon cancer SW620 = settings: 30 mg/kg i.v. qw × 2; SW620 model
[6] = No βGU (direct effects of compound on cells)

Compound | IC50 (MDA-MB-468; Adding βGU) [nM] | IC50 (MDA-MB-468; No βGU) [nM] | T/C (%) ([2]; 10 mg/kg i.v. qw × 2) | Tumor inhibition rate (%) ([2]; 10 mg/kg i.v. qw × 2) | IC50 (NCI-N87; Adding βGU) [nM] | IC50 (LoVo; Adding βGU) [nM] | IC50 (LoVo; No βGU) [nM] | IC50 (SW620; Adding βGU) [nM] | IC50 (SW620; No βGU) [nM] | IC50 (NCI-H460; Adding βGU) [nM] | IC50 (NCI-H460; No βGU) [nM] | IC50 (BxPC-3; Adding βGU) [nM] | IC50 (BxPC-3; No βGU) [nM] | IC50 (HCT116; Adding βGU (β-glucuronidase)) [nM] | IC50 (HCT116; [6]) [nM] | IC50 (NCI-N87; No βGU) [nM] | T/C (%) (human colon cancer SW620) | Tumor inhibition rate (%) (human colon cancer SW620) | further results
CCc1c2c(nc3ccc(OC(=O)N4CCC(N5CCCCC5)CC4)cc13)-c1cc3c(c(=O)n1C2)COC(=O)[C@]3(O)CC [irinotecan, reference compound] | – | – | – | – | – | – | – | – | – | – | – | – | – | – | – | – | – | – | Final body weight change (%) [1]: 6.4%; Tumor inhibition rate (%) ([2]; 100 mg/kg i.p. qw × 2): 71.6%; Final body weight change (%) ([2]; 100 mg/kg i.p. qw × 2, nude mouse): −10.5%
(2S,3S,4S,5R,6S)-6-(3-((1-(2-(2-(2-((4′-((E)-(8-amino-1-hydroxy-5,7-disulfonicnaphthalen-2-yl)diazenyl)-3,3′-dimethyl-[1,1′-biphenyl]-4-yl)amino)-2-oxoethoxy)ethoxy)ethyl)-1H-1,2,3-triazol-4-yl)methoxy)-4-(((S)-4,11-diethyl-4-hydroxy-3,14-dioxo-3,4,12,14-tetrahydro-1H-pyrano[3′,4′:6,7]indolazino[1,2-b]quinolin-9-yl)oxy)methyl)phe noxy)-3,4,5-trihydroxytetrahydro-2H-pyran-2-carboxylate trisodium [Example 54] | 6.8 | 217 | 27.0 | 74.4 | 38 | 9.3 | 275 | 15 | 549 | 11 | 360 | 8.8 | 638 | 13 | 259 | – | – | – | Relative volume RTV (X ± S.D.) [3]: 0.61 ± 0.48; T/C (%) [3]: 8.9%; Tumor inhibition rate (%) [3]: 90.5%; Tumor weight (g, X ± S.D.) [3]: 0.093 ± 0.080 g; inhibition rate at 2 μM (NCI-N87; No βGU, 2 μM): 2 μM about 46.1%
(2S,3S,4S,5R,6S)-6-(3-((1-(2-((4′-((E)-(8-amino-1-hydroxy-5,7-disulfonicnaphthalen-2-yl)diazenyl)-3,3′-dimethyl-[1,1′-biphenyl]-4-yl)amino)-2-oxoethyl)-1H-1,2,3-triazol-4-yl)methoxy)-4-((((S)-4,11-diethyl-4-hydroxy-3,14-dioxy-3,4,12,14-tetrahydro-1H-pyrano[3′,4′:6,7]indolazino[1,2-b]quinolin-9-yl)oxy)methyl)phenoxy)-3,4,5-trihydroxytetrahydro-2H-pyran-2-carboxylate trisodium [Example 90] | 4.3 | 79 | 23.7 | 81.7 | 23 | – | – | – | – | – | – | – | – | – | – | 839 | – | – | Relative volume RTV (X ± S.D.) [4]: 1.30 ± 0.36; T/C (%) [4]: 25.3%; Tumor inhibition rate (%) [4]: 83.5%; Tumor weight (g, X ± S.D.) [4]: 0.197 ± 0.085 g; Relative volume RTV (X ± S.D.) [5]: 0.89 ± 0.10; T/C (%) [5]: 23.9%; Tumor inhibition rate (%) [5]: 77.0%; Tumor weight (g, X ± S.D.) [5]: 0.627 ± 0.408 g
(2S,3S,4S,5R,6S)-6-(3-((1-(6-((4′-((E)-(8-amino-1-hydroxy-5,7-disulfonicnaphthalen-2-yl)diazenyl)-3,3′-dimethoxy-[1,1′-biphenyl]-4-yl)amino)-6-oxohexyl)-1H-1,2,3-triazol-4-yl)methoxy)-4-(((S)-4,11-diethyl-4-hydroxy-3,14-dioxy-3,4,12,14-tetrahydro-1H-pyrano[3′,4′:6,7]indolizino[1,7]quinolin-9-yl)oxy)methyl)phenoxy)-3,4,5-trihydroxytetrahydro-2H-pyran-2-carboxylate trisodium [Example 69] | 10 | 88 | – | – | 32 | 11 | 592 | 7.7 | 361 | 13 | 566 | 16 | 720 | 8.2 | 181 | 350 | 1.1 | 99.1 | –
(2S,3S,4S,5R,6S)-6-(3-((1-(8-((4′-((E)-(8-amino-1-hydroxy-5,7-disulfonicnaphthalen-2-yl)diazenyl)-3,3′-dimethyl-[1,1′-biphenyl]-4-yl)amino)-8-oxooctyl)-1H-1,2,3-triazol-4-yl)methoxy)-4-((((S)-4,11-diethyl-4-hydroxy-3,14-dioxy-3,4,12,14-tetrahydro-1H-pyrano[3′,4′:6,7]indolizino[1,2-b]quinolin-9-yl)oxy)methyl)phenoxy)-3,4,5-trihydroxytetrahydro-2H-pyran-2-carboxylate trisodium [Example 40] | 6.9 | 217 | – | – | 30 | 23 | 302 | 6.9 | 244 | 15 | 943 | 41 | 658 | 6.1 | 218 | 1570 | 2.9 | 97.2 | –
(2S,3S,4S,5R,6S)-6-(3-((1-(8-((4′-((E)-(8-amino-1-hydroxy-5,7-disulfonicnaphthalen-2-yl)diazenyl)-[1,1′-biphenyl]-4-yl)amino)-8-oxooctyl)-1H-1,2,3-triazol-4-yl)methoxy)-4-((((S)-4,11-diethyl-4-hydroxy-3,14-dioxo-3,4,12,14-tetrahydro-1H-pyrano[3′,4′: 6,7]indolazino[1,2-b]quinolin-9-yl)oxy)methyl)phenoxy)-3,4,5-trihydroxytetrahydro-2H-pyran-2-carboxylate trisodium [Example 47] | 14 | 172 | – | – | 62 | 22 | 310 | 6.7 | 329 | 17 | 350 | 27 | 698 | 12 | 183 | 1480 | 3.5 | 96.2 | –
